Measurements published in ChEMBL document CHEMBL5380834, “Design, Synthesis, and Biological Evaluation of Androgen Receptor (AR) Antagonist-Heat Shock Protein 90 (Hsp90) Inhibitor Conjugates for Targeted Therapy of Castration-Resistant Prostate Cancer” (J Med Chem, 2023).
pIC50: −log10 of the molar value. The source made the active and inactive calls. No cut-off for these calls is given here.

Key:
LNCaP [1] = assay: Cytotoxicity against AR-positive human LNCaP cells assessed as inhibition of cell growth incubated for 5 days in presence of AR agonist, R1881 in charcoal stripped serum by WST-1 assay; format: functional, cell-based; settings: 120 h
CWR22R [2] = assay: Cytotoxicity against human 22Rv1 cells assessed as inhibition of cell growth incubated for 5 days in presence of AR agonist, R1881 by WST-1 assay; format: functional, cell-based; settings: 22Rv1, 120 h
LNCaP [3] = assay: Downregulation of AR-regulated PSA protein level in human LNCaP cells measured for 48 hrs in presence of AR agonist, R1881 in charcoal stripped serum by Western blot analysis; format: functional, cell-based; settings: dose 300-1000 nM
[4] = Downregulation of AR-regulated TMPRSS2 protein level in human LNCaP cells at 300 nM measured for 48 hrs in presence of AR agonist, R1881 in charcoal stripped serum by Western blot analysis relative to control; format: functional
LNCaP [5] = assay: Induction of apoptosis in human LNCaP cells assessed as increase in PARP level at 1 uM measured after 48 hrs by Western blot analysis; format: functional, cell-based
CWR22R [6] = assay: Induction of apoptosis in human 22Rv1 cells assessed as increase in PARP level at 1 uM measured after 48 hrs by Western blot analysis; format: functional, cell-based
CWR22R [7] = assay: Antitumor activity against human 22Rv1 cells xenografted in BALB/c nude mouse assessed as tumor growth inhibition at 2.5 mg/kg, ip administered once every 4th day for 3 weeks; format: functional; settings: 22Rv1, 504 h, read-out: TGI
CWR22R [8] = assay: Antitumor activity against human 22Rv1 cells xenografted in BALB/c nude mouse assessed as downregulation of AR-FL level at 2.5 mg/kg, ip administered once every 4th day for 3 weeks; format: functional, organism-based
LNCaP [9] = assay: Antitumor activity against human LNCaP cells xenografted in BALB/c nude mouse assessed as inhibition of tumor growth at 2.5 to 5 mg/kg, po administered once every 4th day for 3 weeks; format: functional, organism-based; settings: dose 2.5-5 mg/kg
LNCaP [10] = assay: Antitumor activity against human LNCaP cells xenografted in BALB/c nude mouse assessed as downregulation of PSA level at 5 mg/kg, ip administered once every 4th day for 3 weeks and measured at 2 hrs post dose; format: functional, organism-based
[11] = Biodistribution in BALB/c mouse testis xenografted with human 22Rv1 cells at 2.5 mg/kg, iv measured at 0.5 to 1 hrs; format: ADME, organism-based, CWR22R; settings: in vivo, time 0.5-1 hrs
[12] = Biodistribution in BALB/c mouse prostate gland xenografted with human 22Rv1 cells at 2.5 mg/kg, iv measured at 0.5 to 1 hrs; format: ADME, organism-based, CWR22R; settings: in vivo, time 0.5-1 hrs
[13] = Biodistribution in BALB/c mouse spleen xenografted with human 22Rv1 cells at 2.5 mg/kg, iv measured at 0.5 to 1 hrs; format: ADME, organism-based, CWR22R; settings: in vivo, time 0.5-1 hrs
[14] = Biodistribution in BALB/c mouse kidney xenografted with human 22Rv1 cells at 2.5 mg/kg, iv measured at 0.5 to 1 hrs; format: ADME, organism-based, CWR22R; settings: in vivo, time 0.5-1 hrs
[15] = Biodistribution in BALB/c mouse lung xenografted with human 22Rv1 cells at 2.5 mg/kg, iv measured at 0.5 to 1 hrs; format: ADME, organism-based, CWR22R; settings: in vivo, time 0.5-1 hrs
[16] = Toxicity in ICR mouse assessed as kidney damage at 30 to 50 mg/kg, iv administered every second day for 14 days; format: organism-based; settings: in vivo, 336 h, dose 30-50 mg/kg, time 14 day
[17] = Toxicity in ICR mouse assessed as liver damage at 30 to 50 mg/kg, iv administered every second day for 14 days; format: organism-based; settings: in vivo, 336 h, dose 30-50 mg/kg, time 14 day
[18] = Toxicity in ICR mouse assessed as spleen damage at 30 to 50 mg/kg, iv administered every second day for 14 days; format: organism-based; settings: in vivo, 336 h, dose 30-50 mg/kg, time 14 day
[19] = Toxicity in ICR mouse assessed as testis damage at 30 to 50 mg/kg, iv administered every second day for 14 days; format: organism-based; settings: in vivo, 336 h, dose 30-50 mg/kg, time 14 day

SMILES: CC(C)c1cc(-c2n[nH]c(=O)n2-c2ccc(CN3CCN(CC4CCN(c5ccc(C(=O)N[C@H]6CC[C@H](Oc7ccc(C#N)c(Cl)c7)CC6)nn5)CC4)CC3)cc2)c(O)cc1O
- pIC50 (LNCaP [1]): 6.77
- pIC50 (CWR22R [2]): 7.58
- Activity (LNCaP [3]): Dose-Dependent Effect
- Activity [4]: >50%
- Activity (LNCaP [5]): Active
- Activity (CWR22R [6]): Active
- inhibition in vivo at 2.5 mg/kg (CWR22R [7]): 50%
- Activity (CWR22R [8]): Active
- Activity (LNCaP [9]): Active
- Activity (LNCaP [10]): Active
- Drug uptake [11]: Active
- Drug uptake [12]: Active
- Drug uptake [13]: Active
- Drug uptake [14]: Active
- Drug uptake [15]: Active
- Activity [16]: Non-Toxic
- Activity [17]: Non-Toxic
- Activity [18]: Non-Toxic
- Activity [19]: Non-Toxic
